# According to ChEMBL document CHEMBL6127020, “Discovery of aminopiperidine based potent & novel topoisomerase inhibitor with broad spectrum anti-bacterial activity” (Bioorg Med Chem Lett, 2024):
# How the values were obtained:
# [1] = test system: Escherichia coli; assay: Antibacterial activity against Escherichia coli ATCC 25922 assessed as inhibition of bacterial growth; assay type: functional
# [2] = test system: Staphylococcus aureus; assay: Antibacterial activity against Staphylococcus aureus ATCC 29213 assessed as inhibition of bacterial growth; assay type: functional
# [3] = target: Cytochrome P450 2C19 (Homo sapiens, UniProt P33261); assay: Inhibition of CYP2C19 (unknown origin) at 10 uM; assay type: ADME
# Cytochrome P450 2C19, sequence (P33261 whole entry): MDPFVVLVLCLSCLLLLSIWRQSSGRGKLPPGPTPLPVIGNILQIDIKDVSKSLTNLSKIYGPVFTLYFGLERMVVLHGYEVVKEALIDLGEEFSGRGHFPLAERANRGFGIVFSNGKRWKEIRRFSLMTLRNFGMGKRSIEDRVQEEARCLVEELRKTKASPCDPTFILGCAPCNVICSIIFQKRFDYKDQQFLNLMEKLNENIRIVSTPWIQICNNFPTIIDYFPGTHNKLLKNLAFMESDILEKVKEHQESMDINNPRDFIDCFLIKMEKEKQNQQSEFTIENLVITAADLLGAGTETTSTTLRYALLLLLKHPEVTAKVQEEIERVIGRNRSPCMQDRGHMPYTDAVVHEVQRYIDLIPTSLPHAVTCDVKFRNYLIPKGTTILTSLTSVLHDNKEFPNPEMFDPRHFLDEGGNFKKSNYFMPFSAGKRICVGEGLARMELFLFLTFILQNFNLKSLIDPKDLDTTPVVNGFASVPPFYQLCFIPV
# [4] = target: DNA gyrase (Staphylococcus aureus, UniProt P0A0K8+P20831); assay: Inhibition of Staphylococcus aureus DNA gyrase; assay type: protein-complex assay
# [5] = target: T1, Cytochrome P450 1A2 (Homo sapiens, UniProt P05177); assay: Inhibition of CYP1A2 (unknown origin) at 10 uM; assay type: ADME
# T1 sequence (P05177 whole entry): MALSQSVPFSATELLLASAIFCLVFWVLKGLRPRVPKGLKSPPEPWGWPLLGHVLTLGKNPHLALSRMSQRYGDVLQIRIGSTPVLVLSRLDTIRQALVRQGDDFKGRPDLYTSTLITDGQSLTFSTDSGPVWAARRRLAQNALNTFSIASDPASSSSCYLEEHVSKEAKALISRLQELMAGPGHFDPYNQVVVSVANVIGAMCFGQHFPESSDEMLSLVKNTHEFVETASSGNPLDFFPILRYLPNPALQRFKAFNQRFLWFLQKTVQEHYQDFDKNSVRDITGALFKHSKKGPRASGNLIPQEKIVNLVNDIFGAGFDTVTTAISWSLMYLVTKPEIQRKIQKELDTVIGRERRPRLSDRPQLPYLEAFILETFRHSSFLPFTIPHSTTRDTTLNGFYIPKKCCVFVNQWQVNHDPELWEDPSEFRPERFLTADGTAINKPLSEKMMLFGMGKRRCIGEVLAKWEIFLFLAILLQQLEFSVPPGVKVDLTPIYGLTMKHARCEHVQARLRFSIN
# [6] = target: Cytochrome P450 3A4 (Homo sapiens, UniProt P08684); assay: Inhibition of CYP3A4 (unknown origin) at 10 uM; assay type: ADME
# Cytochrome P450 3A4, sequence (P08684 whole entry): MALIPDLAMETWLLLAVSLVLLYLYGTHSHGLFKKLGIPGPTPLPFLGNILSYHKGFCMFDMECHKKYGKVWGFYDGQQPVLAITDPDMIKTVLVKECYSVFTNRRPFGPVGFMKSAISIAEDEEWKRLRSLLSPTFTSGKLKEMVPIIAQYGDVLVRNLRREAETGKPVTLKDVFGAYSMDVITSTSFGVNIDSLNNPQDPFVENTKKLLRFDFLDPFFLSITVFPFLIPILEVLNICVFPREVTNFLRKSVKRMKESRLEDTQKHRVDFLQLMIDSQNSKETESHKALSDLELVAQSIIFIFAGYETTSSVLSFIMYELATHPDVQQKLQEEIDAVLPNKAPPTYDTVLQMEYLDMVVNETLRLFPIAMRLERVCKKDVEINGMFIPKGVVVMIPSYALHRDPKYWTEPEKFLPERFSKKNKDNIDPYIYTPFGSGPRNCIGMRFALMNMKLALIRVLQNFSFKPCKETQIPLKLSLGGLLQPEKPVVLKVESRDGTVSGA
# [7] = target: Cytochrome P450 2D6 (Homo sapiens, UniProt P10635); assay: Inhibition of CYP2D6 (unknown origin) at 10 uM; assay type: ADME
# Cytochrome P450 2D6, sequence (P10635 whole entry): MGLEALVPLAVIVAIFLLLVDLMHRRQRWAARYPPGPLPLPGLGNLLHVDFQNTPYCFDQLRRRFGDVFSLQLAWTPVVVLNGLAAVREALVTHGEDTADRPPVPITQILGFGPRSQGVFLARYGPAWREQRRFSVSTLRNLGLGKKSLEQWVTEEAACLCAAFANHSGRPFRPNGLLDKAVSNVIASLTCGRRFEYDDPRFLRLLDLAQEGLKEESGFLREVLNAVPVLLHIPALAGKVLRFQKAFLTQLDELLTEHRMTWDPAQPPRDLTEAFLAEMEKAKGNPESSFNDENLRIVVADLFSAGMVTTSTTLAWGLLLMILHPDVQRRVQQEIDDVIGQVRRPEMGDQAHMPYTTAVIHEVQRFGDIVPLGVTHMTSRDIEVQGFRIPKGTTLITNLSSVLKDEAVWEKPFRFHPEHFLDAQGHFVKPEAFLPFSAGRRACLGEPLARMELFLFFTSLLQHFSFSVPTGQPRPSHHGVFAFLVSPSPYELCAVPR
# [8] = target: T2, Cytochrome P450 2C8 (Homo sapiens, UniProt P10632); assay: Inhibition of CYP2C8 (unknown origin) at 10 uM; assay type: ADME
# T2 sequence (P10632 whole entry): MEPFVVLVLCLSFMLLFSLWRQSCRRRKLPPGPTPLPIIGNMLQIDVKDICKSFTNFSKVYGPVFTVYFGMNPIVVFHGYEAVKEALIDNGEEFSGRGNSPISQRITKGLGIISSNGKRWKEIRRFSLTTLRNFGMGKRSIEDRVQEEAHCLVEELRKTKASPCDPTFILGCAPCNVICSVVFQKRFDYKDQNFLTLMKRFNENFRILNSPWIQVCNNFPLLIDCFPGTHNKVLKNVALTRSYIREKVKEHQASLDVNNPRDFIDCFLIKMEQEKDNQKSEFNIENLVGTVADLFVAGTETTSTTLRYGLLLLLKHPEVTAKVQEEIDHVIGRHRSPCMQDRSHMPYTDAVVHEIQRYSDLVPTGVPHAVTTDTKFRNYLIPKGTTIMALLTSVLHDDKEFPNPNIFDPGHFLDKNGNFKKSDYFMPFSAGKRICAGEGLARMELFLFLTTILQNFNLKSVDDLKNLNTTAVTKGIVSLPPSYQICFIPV
# [9] = target: Topoisomerase IV (Staphylococcus aureus, UniProt P0C1S7+P0C1U9); assay: Inhibition of Staphylococcus aureus DNA topoisomerase 4; assay type: protein-complex assay
MIC [1],MIC [2],SMILES,also measured
2 µg/mL,2 µg/mL,N#Cc1cnn2ccc(=O)n(CCN3CCC(NCc4cc5c(cn4)OCCC5)CC3)c12,–
> 16 µg/mL,16 µg/mL,c1ccc2c(c1)Sc1ccccc1N2CCN1CCC(NCc2cc3c(cn2)OCCC3)CC1,–
> 16 µg/mL,> 16 µg/mL,CCOC(=O)C1COc2ccc(CNC3CCN(CCn4c(=O)ccc5ccc(C#N)cc54)CC3)cc2O1 (configuration not stated),–
> 16 µg/mL,> 16 µg/mL,N#Cc1ccc2ccc(=O)n(CCN3CCC(NCc4ccc5c(c4)OC(C(=O)O)CO5)CC3)c2c1 (configuration not stated),–
> 16 µg/mL,> 16 µg/mL,CCOC(=O)C1COc2cc(CNC3CCN(CCn4c(=O)ccc5ccc(C#N)cc54)CC3)ccc2O1 (configuration not stated),–
> 16 µg/mL,> 16 µg/mL,N#Cc1ccc2ccc(=O)n(CCN3CCC(NCc4ccc5c(c4)OCC(=O)N5)CC3)c2c1,–
–,–,N#Cc1ccc2ccc(=O)n(CCN3CCC(NCc4ccc5c(c4)NC(=O)CO5)CC3)c2c1,inhibition (INH) [3]: Not Active; IC50 [4]: 0.0034 µM; inhibition (INH) [5]: Not Active; inhibition (INH) [6]: Not Active; inhibition (INH) [7]: Not Active; inhibition (INH) [8]: Not Active; IC50 [9]: 1.3 µM
0.25 µg/mL,< 0.125 µg/mL,N#Cc1ccc2ccc(=O)n(CCN3CCC(NCc4ccc5c(c4)CCCO5)CC3)c2c1,–
> 16 µg/mL,> 16 µg/mL,O=S1(=O)c2ccccc2-c2ccccc2N1CCN1CCC(NCc2cc3c(cn2)OCCC3)CC1,–
> 16 µg/mL,2 µg/mL,O=c1c2ccccc2c2ncccc2n1CCN1CCC(NCc2cc3c(cn2)OCCC3)CC1,–
–,< 0.125 µg/mL,N#Cc1ccc2ccc(=O)n(CCN3CCC(NCc4ccc5c(c4)OCCO5)CC3)c2c1,inhibition (INH) [3]: Not Active; IC50 [4]: 0.044 µM; inhibition (INH) [5]: Not Active; inhibition (INH) [6]: Not Active; inhibition (INH) [7]: Not Active; inhibition (INH) [8]: Not Active; IC50 [9]: 0.9 µM
0.5 µg/mL,0.125 µg/mL,N#Cc1ccc2ccc(=O)n(CCN3CCC(NCc4cc5c(cn4)OCCC5)CC3)c2c1,–
> 16 µg/mL,> 16 µg/mL,c1ccc2c(c1)-c1ccccc1C2CCN1CCC(NCc2cc3c(cn2)OCCC3)CC1,–
